In ChEMBL document CHEMBL1201862, “PubChem BioAssay data set” (2004):
The source made the active and inactive calls.

Columns and labels:
[1] = inhibitors of HIV Env-driven cell fusion, dose response, cherry-pick (AID 652057); format: functional, cell-based
[2] = inhibitors of clade B AD8 Env fusion, dose response, cell-based, cherry-pick (AID 652062); format: functional;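 also: luciferase signal from cell-cell fusion driven by HIV-1 clade B AD8 Env; potency is for inhibitors of fusion seen as a drop in luminescence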
Fatty acid synthase [3] = molecular target: T1, Fatty acid synthase (Homo sapiens, UniProt P49327); test: FAS thioesterase domain inhibitors, dose response, biochemical, endpoint fluorescence intensity, uHTS hits (AID 624327); format: functional;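 also: fluorescence from hydrolysis of an O-methyl fluorescein acyl ester substrate by the enzyme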
T1 sequence (P49327 whole entry, the tested form may be a part): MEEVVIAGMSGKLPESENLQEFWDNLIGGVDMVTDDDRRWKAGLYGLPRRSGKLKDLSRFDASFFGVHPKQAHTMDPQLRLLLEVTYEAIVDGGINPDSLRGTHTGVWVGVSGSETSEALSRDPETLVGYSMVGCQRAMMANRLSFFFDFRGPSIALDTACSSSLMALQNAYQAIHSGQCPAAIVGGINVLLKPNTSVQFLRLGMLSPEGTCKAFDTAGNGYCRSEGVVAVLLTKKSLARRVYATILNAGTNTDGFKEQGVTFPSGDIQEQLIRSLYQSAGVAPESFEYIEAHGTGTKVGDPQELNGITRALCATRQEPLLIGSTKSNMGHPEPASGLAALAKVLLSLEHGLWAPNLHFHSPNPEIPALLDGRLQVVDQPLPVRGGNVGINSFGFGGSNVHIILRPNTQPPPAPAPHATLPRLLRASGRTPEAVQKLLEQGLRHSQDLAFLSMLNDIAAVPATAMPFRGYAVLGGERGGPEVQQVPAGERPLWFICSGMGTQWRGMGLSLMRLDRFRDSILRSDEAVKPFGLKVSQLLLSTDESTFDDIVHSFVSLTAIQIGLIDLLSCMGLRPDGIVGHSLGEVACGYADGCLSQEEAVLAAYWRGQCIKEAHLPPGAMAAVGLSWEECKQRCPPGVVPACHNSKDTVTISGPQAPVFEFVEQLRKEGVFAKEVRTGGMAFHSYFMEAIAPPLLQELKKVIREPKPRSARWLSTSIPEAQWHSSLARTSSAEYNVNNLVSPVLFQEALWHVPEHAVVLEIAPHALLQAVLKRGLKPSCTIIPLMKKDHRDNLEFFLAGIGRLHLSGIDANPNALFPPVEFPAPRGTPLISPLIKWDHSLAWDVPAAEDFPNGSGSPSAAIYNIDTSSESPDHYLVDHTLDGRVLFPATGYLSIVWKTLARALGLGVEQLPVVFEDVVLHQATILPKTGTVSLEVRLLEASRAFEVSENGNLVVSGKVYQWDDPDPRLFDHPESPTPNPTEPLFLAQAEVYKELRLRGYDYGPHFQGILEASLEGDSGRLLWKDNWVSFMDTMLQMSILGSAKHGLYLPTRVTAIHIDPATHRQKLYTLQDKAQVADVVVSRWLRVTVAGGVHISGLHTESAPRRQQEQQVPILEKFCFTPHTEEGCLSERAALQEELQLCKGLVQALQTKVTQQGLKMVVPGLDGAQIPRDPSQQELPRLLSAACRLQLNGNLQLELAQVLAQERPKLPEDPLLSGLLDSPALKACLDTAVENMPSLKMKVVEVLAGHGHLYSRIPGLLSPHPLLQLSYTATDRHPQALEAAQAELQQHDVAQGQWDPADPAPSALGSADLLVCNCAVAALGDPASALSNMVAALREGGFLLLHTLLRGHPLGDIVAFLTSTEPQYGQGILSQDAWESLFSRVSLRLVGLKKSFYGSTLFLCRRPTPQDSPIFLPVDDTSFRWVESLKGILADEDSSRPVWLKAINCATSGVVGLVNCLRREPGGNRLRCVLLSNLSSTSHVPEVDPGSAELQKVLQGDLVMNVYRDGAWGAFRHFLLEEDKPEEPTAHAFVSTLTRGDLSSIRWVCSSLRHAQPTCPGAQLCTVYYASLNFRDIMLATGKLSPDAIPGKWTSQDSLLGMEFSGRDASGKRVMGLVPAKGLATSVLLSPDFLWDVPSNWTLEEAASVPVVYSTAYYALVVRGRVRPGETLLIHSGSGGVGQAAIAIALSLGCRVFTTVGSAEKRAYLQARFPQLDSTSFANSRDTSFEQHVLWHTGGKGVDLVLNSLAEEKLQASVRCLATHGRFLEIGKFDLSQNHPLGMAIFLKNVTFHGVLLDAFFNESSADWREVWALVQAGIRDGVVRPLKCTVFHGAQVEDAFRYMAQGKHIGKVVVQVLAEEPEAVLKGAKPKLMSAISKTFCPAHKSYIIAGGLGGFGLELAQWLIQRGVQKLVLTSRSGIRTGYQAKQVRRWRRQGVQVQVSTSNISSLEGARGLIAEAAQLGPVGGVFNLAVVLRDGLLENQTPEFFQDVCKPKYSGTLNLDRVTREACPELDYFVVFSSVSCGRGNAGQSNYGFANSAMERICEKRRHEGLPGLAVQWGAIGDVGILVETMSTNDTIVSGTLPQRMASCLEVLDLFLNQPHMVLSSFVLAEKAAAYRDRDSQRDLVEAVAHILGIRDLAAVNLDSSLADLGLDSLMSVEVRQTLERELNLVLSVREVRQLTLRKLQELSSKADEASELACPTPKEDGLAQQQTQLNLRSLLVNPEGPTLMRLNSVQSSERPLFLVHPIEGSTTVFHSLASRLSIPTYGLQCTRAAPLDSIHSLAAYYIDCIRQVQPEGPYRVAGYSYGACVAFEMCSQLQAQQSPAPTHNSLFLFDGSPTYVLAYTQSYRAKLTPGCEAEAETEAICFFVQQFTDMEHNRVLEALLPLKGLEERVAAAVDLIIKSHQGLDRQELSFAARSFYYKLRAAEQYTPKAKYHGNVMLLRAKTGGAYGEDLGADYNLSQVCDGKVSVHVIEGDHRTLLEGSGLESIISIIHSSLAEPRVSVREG

Fatty acid synthase [4] = molecular target: T1, Fatty acid synthase; test: FAS thioesterase domain inhibitors, dose response, biochemical, kinetic fluorescence intensity (AID 624326); format: functional;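 also: rate of fluorescence rise from hydrolysis of a fluorogenic O-methyl fluorescein ester substrate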
[5] = intracellular Trypanosoma cruzi inhibitors in host cells – cell-based, plate reader, cherry-pick samples, set 3, dose response (AID 651818); format: functional;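 also: compounds incubated with infected cells for about four days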
[6] = NIH-3T3 fibroblast cytotoxicity, dose response, cytotoxicity control, cell-based, fluorescence, Alamar Blue, secondary assay (AID 2327); format: functional;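 also: NIH-3T3 mouse fibroblasts cultured with fluconazole at 8 µg/mL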
[7] = C. albicans growth with fluconazole, confirmation, fluorescence, retest (AID 2467); format: functional, cell-based
Streptococcus = test: Group A Streptococcus viability loss, dose response, counter-screen for streptokinase expression inhibitor project, luminescence, BacTiterGlo (AID 1915); format: functional, organism-based;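 also: potency for reduction of bacterial viability or growth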
[8] = test system: Streptococcus sp. 'group A'; test: growth inhibition of control SK(-) GAS strain, dose response, counter-screen for streptokinase expression inhibitor project, luminescence, kanamycin, BacTiterGlo, confirmation (AID 1900); format: functional, organism-based
Streptokinase A = molecular target: T2, Streptokinase A (Streptococcus pyogenes serotype M1, UniProt P10520); test: S. pyogenes streptokinase expression inhibitors, potency, dose response, plasminogen activation absorbance, OD405 (AID 1914); format: functional, Streptococcus pyogenes M1 GAS;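 also: secreted streptokinase activity via plasminogen activation per viability signal from cell pellet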
T2 sequence (P10520 whole entry): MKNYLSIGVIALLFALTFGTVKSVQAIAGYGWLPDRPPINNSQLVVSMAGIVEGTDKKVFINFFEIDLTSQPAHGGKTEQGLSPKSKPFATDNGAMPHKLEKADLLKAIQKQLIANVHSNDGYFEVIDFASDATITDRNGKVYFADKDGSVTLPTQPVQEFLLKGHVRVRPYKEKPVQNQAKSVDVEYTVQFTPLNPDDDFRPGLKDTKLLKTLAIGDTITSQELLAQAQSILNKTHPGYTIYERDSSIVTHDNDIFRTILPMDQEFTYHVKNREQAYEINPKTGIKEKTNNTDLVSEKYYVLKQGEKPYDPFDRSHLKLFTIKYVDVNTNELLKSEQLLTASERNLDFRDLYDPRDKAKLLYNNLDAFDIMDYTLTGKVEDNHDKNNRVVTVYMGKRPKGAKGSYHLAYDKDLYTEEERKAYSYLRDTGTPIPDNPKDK

[9] = ZM109 Env clade C HIV-1 fusion inhibitors, dose response, HeLa effector, CEM target cells, luciferase, cherry-pick (AID 652058); format: functional, cell-based
[10] = off-target signal loss in HeLa-CEM21 co-culture – HeLa F-luc CTL cells, cherry-picked, counter-screen for HIV-1 Env fusion inhibitor project, dose response (AID 652040); format: functional, cell-based;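 also: potency for signal decrease marking cytotoxic or nonspecific inhibition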
[11] = molecular target: T3, Polyadenylate-binding protein 1 (Homo sapiens, UniProt P11940); test: PABP1 MLLE–PAM2 binding inhibitor potency, dose response, biochemical, fluorescence polarization, FITC-PAM2 peptide (AID 602259); format: functional; conditions: read-out: IC50_Mean
T3 sequence (P11940 whole entry): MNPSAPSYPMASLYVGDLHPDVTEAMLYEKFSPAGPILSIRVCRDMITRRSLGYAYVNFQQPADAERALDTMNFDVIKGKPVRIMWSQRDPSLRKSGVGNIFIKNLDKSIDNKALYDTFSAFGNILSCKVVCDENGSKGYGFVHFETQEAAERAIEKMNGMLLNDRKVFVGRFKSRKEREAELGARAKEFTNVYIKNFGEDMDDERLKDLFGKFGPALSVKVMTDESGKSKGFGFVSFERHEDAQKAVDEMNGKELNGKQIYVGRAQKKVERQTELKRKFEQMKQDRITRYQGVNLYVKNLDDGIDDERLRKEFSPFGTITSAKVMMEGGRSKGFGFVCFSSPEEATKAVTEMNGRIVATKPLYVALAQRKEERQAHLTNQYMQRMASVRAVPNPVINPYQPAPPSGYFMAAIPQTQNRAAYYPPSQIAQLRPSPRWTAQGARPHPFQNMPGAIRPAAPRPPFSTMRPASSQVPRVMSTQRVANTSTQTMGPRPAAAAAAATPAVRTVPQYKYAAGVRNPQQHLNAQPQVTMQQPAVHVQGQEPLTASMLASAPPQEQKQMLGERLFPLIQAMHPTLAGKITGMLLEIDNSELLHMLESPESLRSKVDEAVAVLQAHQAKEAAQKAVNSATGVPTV

[12] = molecular target: T3, Polyadenylate-binding protein 1; test: PABP1 MLLE–PAM2 interaction inhibitors, dose response, miRNA deadenylation inhibitor project, biochemical, fluorescence polarization, Cy5-PAM2 peptide, secondary (AID 602260); format: functional; conditions: read-out: IC50_Mean
[13] = molecular target: Heat shock protein HSP 90-alpha (Homo sapiens, UniProt P07900); format: functional, organism-based
INS1 = test: beta cell apoptosis inhibitors, cytokine rescue, dose response, luminescence, retest (AID 449756); format: functional, cell-based; conditions: Rattus norvegicus;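 also: cell death triggered by IL-1 beta plus TNF-alpha plus IFN-gamma mixture; protective hits raise ATP signal compared with cytokine alone wells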
Cytochrome P450 2C9 = Cytochrome P450 2C9 (Homo sapiens, UniProt P11712)
Sequence of Cytochrome P450 2C9 (P11712 whole entry): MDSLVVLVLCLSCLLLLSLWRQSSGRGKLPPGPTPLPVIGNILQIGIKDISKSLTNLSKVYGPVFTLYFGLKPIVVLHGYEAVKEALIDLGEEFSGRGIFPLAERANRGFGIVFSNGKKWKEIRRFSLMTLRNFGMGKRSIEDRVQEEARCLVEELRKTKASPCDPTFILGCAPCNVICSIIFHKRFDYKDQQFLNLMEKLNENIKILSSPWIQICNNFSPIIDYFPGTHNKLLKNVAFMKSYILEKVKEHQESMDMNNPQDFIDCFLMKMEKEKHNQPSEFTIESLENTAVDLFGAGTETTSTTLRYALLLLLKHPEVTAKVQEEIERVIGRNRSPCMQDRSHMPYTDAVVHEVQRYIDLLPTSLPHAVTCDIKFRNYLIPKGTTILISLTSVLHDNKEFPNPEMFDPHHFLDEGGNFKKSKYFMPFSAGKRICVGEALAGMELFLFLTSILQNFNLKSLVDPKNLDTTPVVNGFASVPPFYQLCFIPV

cells [14] = format: functional, cell-based
Cytochrome P450 2C19 = Cytochrome P450 2C19 (Homo sapiens, UniProt P33261); test: Cytochrome panel assay with activity outcomes. Panel member name: p450-cyp2c19 Compounds with AC50 equal or less than 10 uM are considered active; format: functional; conditions: read-out: AC50
Sequence of Cytochrome P450 2C19 (P33261 whole entry): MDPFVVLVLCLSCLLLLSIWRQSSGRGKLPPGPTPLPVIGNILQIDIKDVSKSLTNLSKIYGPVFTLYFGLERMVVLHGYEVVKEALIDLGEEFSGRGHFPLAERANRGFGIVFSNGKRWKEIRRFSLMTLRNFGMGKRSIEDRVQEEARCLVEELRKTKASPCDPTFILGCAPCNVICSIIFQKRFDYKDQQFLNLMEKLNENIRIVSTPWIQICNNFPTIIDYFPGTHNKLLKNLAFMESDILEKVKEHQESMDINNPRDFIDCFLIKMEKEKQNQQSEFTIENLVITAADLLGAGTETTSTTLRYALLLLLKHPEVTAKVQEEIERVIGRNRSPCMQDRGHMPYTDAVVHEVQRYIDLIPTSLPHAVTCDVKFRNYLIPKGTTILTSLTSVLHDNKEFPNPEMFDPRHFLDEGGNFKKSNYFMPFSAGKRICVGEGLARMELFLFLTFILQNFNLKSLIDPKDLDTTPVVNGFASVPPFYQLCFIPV

cells [15] = format: functional, cell-based; remark: listed apart in the source
[16] = Luminescence Cell-Based Dose Retest to Confirm Inhibitors of Cancer Stem Cells. [Related pubchem assays (depositor defined):AID2717, AID2721]; format: functional; conditions: Homo sapiens
[17] = cytotoxicity toward NIH3T3 fibroblasts, dose response, counter-screen, cell-based, ATP luminescence, mouse fibroblasts (AID 2010); format: functional;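 also: cells exposed to compound for about 90 hours before reading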
[18] = inhibitors of intracellular T. cruzi replication, confirmation, NIH3T3 host cells, beta-gal luminescence (AID 2044); format: functional, cell-based;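 also: intracellular parasites grown in NIH/3T3 mouse fibroblasts as host cells; luminescent beta-galactosidase reporter signal from transgenic T. cruzi replicating inside host cells; inhibitors lower the luminescence signal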
cells [19] = format: functional
[20] = Luminescence Cell-Based Dose Response HTS to Identify Inhibitors of 5'UTR Stem-Loop Driven Prion Protein mRNA Translation in H4 Neuroglioblastoma Cells. [Related pubchem assays: 1827 (Project Summary), 1813 (Primary HTS)]; format: functional
[21] = inhibitors of SNCA 5'UTR-driven reporter translation, confirmation, H4 neuroglioma cells, luminescence (AID 1988); format: functional, cell-based
[22] = inhibitors of firefly luciferase expression or activity, dose response, H4 neuroglioma cells, luminescence (AID 1990); format: functional, cell-based

Cc1ccc(S(=O)(=O)N(C)C[C@H]2Oc3cc(-c4cccc(F)c4)ccc3S(=O)(=O)N([C@@H](C)CO)C[C@H]2C)cc1
AC50 [1]: 1.47 µM (active)
AC50 [2]: 6.67 µM (active)

O=[N+]([O-])c1cccc(NC(=S)N2CCc3ccccc3C2)c1
IC50 (Fatty acid synthase [3]): 16.5 µM (active)
IC50 (Fatty acid synthase [4]): 10.6 µM (active)

C[C@H](CO)N1C[C@H](C)[C@@H](CN(C)CC2CCCCC2)Oc2c(NS(=O)(=O)c3cccs3)cccc2C1=O
AC50 [5]: 19.7 µM (active)

Cc1ccc(CNC(=O)CSCc2cccc(F)c2)cc1
EC50 [6]: > 150 µM (inactive)
EC50 [7]: > 38 µM (not active)

CCOC(=O)c1sc(N2C(=O)C(O)=C(C(=O)c3ccco3)C2c2cccc(Cl)c2)nc1C (stereo not given)
EC50 (Streptococcus): 8.62 µM (active)
EC50 [8]: 7.41 µM (active)
EC50 [6]: 30.5 µM (active)
EC50 [7]: 1.41 µM (active)
EC50 (Streptokinase A): > 150 µM (not active)

COc1ccc(NC(=O)Nc2ccc3c(c2)C(=O)N([C@H](C)CO)C[C@H](C)[C@H](CN(C)Cc2ccc(-c4ccccc4)cc2)O3)cc1
AC50 [5]: 4.77 µM (active)

Cc1c(Br)c([N+](=O)[O-])nn1CC(=O)Nc1ccc(Cc2ccncc2)cc1
IC50 (Fatty acid synthase [3]): 9.53 µM (active)
IC50 (Fatty acid synthase [4]): 8.12 µM (active)

CC[C@@]12C(=O)N(c3ccc(C)cc3)C(=O)N1[C@H](c1ccc(OC)cc1)[C@@H]1C(=O)N(C(C)(C)C)C(=O)[C@@H]12
AC50 [9]: 2.86 µM (active)
AC50 [10]: 4.94 µM (active)
AC50 [1]: 2.37 µM (active)
AC50 [2]: 3.09 µM (active)

COc1ccc(NC(=O)Nc2cccc3c2O[C@@H](CN(C)Cc2ccc(C(=O)Nc4ccccc4N)cc2)[C@H](C)CN([C@H](C)CO)C3=O)cc1
AC50 [5]: 2.41 µM (active)

N#Cc1cc(-c2ccccc2)cn(Cc2c(Cl)cccc2Cl)c1=O
IC50 (Fatty acid synthase [3]): 7.42 µM (active)
IC50 (Fatty acid synthase [4]): 8.23 µM (active)

C[C@@H]1CN([C@H](C)CO)C(=O)c2cc(NS(=O)(=O)c3ccc(Cl)cc3)ccc2O[C@@H]1CN(C)Cc1ccc(Cl)c(Cl)c1
AC50 [5]: 4.7 µM (active)

CC(NC(=O)CSC1=NCCS1)c1ccccc1 (stereo not given)
IC50 [11]: > 66 µM (inactive)
IC50 [12]: > 66 µM (inactive)

Nc1c(C(=O)Nc2ccc3c(c2)OCCO3)nnn1Cc1ccccc1Cl
AC50 [13]: 10.3 µM (active)
AC50 (INS1): 0.653 µM (active)

COCCNC(=O)c1sc2nc(-c3ccccc3)cn2c1C
AC50 (Cytochrome P450 2C9): 28.2 µM (inconclusive)
EC50 (cells [14]): > 350 µM (not active)
AC50 (Cytochrome P450 2C19): 20 µM (inconclusive)
EC50 (cells [15]): > 350 µM (not active)

C[C@H](CO)N1C[C@H](C)[C@H](CN(C)Cc2ccc(C(=O)Nc3ccccc3N)cc2)Oc2ccc(NC(=O)Nc3ccccc3)cc2CC1=O
AC50 [5]: 2.98 µM (active)

O=C(CNC(=O)C(c1ccccc1)c1ccccc1)N/N=C/c1ccc(O)cc1O
EC50 (cells [14]): 17.5 µM (active)
AC50 [16]: 2.59 µM (active)
EC50 (cells [15]): > 350 µM (not active)

CC(C)c1ccc(NC(=O)Cc2cn(C)c3ccccc23)cc1
EC50 [6]: > 150 µM (inactive)
EC50 [7]: > 38 µM (not active)

Cn1c(-c2ccccc2)cnc1NCc1cccc([N+](=O)[O-])c1
IC50 (Fatty acid synthase [3]): 6.81 µM (active)
IC50 (Fatty acid synthase [4]): 8.79 µM (active)

CC(OC(=O)CSc1ccc([N+](=O)[O-])cc1)C(=O)NC1CC1 (stereo not given)
IC50 [11]: > 66 µM (inactive)
IC50 [12]: > 66 µM (inactive)

O=C(NC(=S)Nc1ccc(Oc2ccccc2)cc1)c1ccc(Cl)cc1
EC50 [17]: > 60 µM (not active)
EC50 [18]: 2.34 µM (active)
IC50 [11]: > 66 µM (inactive)
IC50 [12]: > 66 µM (inactive)

O=C(COC(=O)CCc1c[nH]c2ccccc12)Nc1cc([N+](=O)[O-])ccc1Cl
IC50 (cells [19]): 4.54 µM (active)
IC50 (Fatty acid synthase [3]): 15.2 µM (active)
IC50 (Fatty acid synthase [4]): 10.7 µM (active)

Cc1noc(C)c1S(=O)(=O)Nc1ccc2c(c1)C(=O)N([C@H](C)CO)C[C@H](C)[C@H](CN(C)Cc1ccc(C(=O)Nc3ccccc3N)cc1)O2
AC50 [5]: 3.11 µM (active)

COc1ccc(Cn2nnnc2C(c2cc3cc(C)cc(C)c3nc2O)N2CCOCC2)cc1 (stereo not given)
AC50 [9]: 4.35 µM (active)
AC50 [10]: 4.7 µM (active)
AC50 [1]: 3.39 µM (active)
AC50 [2]: 5.51 µM (active)

O=C(Cc1ccc([N+](=O)[O-])cc1)NNC(=O)c1ccc2c(c1)OCO2
EC50 [6]: > 150 µM (inactive)
EC50 [7]: > 38 µM (not active)

O=C(O)c1cccc2c1Cc1cc([N+](=O)[O-])ccc1-2
AC50 [13]: 0.357 µM (active)

O=C(CCNC(=O)c1ccc([N+](=O)[O-])cc1)NCCc1ccc(Cl)cc1
IC50 (Fatty acid synthase [3]): 8.77 µM (active)
IC50 (Fatty acid synthase [4]): 7.38 µM (active)

O=C(CSc1nc(O)c(Cc2ccccc2)c(=O)[nH]1)Nc1ccccc1
IC50 [11]: > 66 µM (inactive)
IC50 [12]: > 66 µM (inactive)

COc1ccc(CCC(C)NCc2cc(OC)cc(OC)c2)cc1 (stereo not given)
AC50 [9]: 9.46 µM (active)
AC50 [10]: 7.92 µM (active)
AC50 [1]: 6.55 µM (active)
AC50 [2]: 14.1 µM (active)

O=C(COc1ccccc1)Nc1nc(-c2ccncc2)cs1
IC50 [11]: > 66 µM (inactive)
IC50 [12]: > 66 µM (inactive)

C[C@@H]1CN([C@H](C)CO)C(=O)Cc2cc(NC(=O)Cc3cn(C)c4ccccc34)ccc2O[C@H]1CN(C)Cc1ccc(Oc2ccccc2)cc1
AC50 [5]: 3.74 µM (active)

N=C(N)SCP(=O)(c1ccccc1)c1ccccc1
IC50 [11]: > 66 µM (inactive)
IC50 [12]: > 66 µM (inactive)

COc1ccc(NC(=O)c2cccc(NC(=O)c3ccco3)c2)c(OC)c1
EC50 (cells [14]): > 350 µM (not active)
EC50 (cells [15]): > 350 µM (not active)

C[C@@H]1CN([C@@H](C)CO)C(=O)Cc2cc(NC(=O)Nc3ccc(C(F)(F)F)cc3)ccc2O[C@@H]1CN(C)CC1CCCCC1
AC50 [5]: 1.93 µM (active)

O=C(Nc1cccc(C(F)(F)F)c1)Oc1ccc(Cl)c2cccnc12
EC50 (Streptococcus): 4.98 µM (active)
AC50 [13]: 3.86 µM (active)
EC50 [8]: 2.54 µM (active)
AC50 (INS1): 7.15 µM (active)

CCN(CC)S(=O)(=O)c1ccc(N2CCOCC2)c(NC(=O)c2cccc3ccccc23)c1
EC50 (cells [14]): > 350 µM (not active)
EC50 (cells [15]): > 350 µM (not active)

Cc1cc(C)nc(N/N=C/C2=C(O)CC(c3ccccc3)CC2=O)n1 (stereo not given)
EC50 [20]: 14.5 µM (active)
EC50 (cells [14]): > 350 µM (not active)
EC50 [21]: 11.3 µM (active)
EC50 (cells [15]): > 350 µM (not active)
EC50 [22]: 14.7 µM (active)

C[C@H](CO)N1C[C@H](C)[C@H](CN(C)Cc2ccc3c(c2)OCO3)Oc2ccc(NC(=O)Nc3ccccc3)cc2C1=O
AC50 [5]: 8.77 µM (active)

O=C(CN1CCN(c2ccccc2)CC1)Nc1cccc([N+](=O)[O-])c1
IC50 (Fatty acid synthase [3]): 9.24 µM (active)
IC50 (Fatty acid synthase [4]): 10.7 µM (active)

CC(C)(C)c1ccc(-n2ncc3c2CCCC3NC(=O)CN2CCCC2=O)cc1 (stereo not given)
AC50 [10]: > 32 µM (inactive)

O=C(c1ccc(Cl)c([N+](=O)[O-])c1)N1CCN(S(=O)(=O)c2ccc(Cl)cc2)CC1
IC50 (Fatty acid synthase [3]): 14.2 µM (active)
IC50 (Fatty acid synthase [4]): 16.2 µM (active)

O=C(N/N=C/C(Br)=C\c1ccccc1)c1ccco1
EC50 (cells [14]): > 350 µM (not active)
EC50 (cells [15]): 13.8 µM (active)

Cc1ccc(S(=O)(=O)NCC(=O)OCC(=O)NCc2ccc3c(c2)OCO3)cc1
AC50 [1]: 24 µM (active)
AC50 [2]: 5.22 µM (active)

Cc1cc(C)cc(N2C(=O)CC(Sc3ccccc3C(=O)O)C2=O)c1 (stereo not given)
IC50 [11]: > 66 µM (inactive)
IC50 [12]: > 66 µM (inactive)
